Test [1] deals with T1, SFRP-1 (Homo sapiens, UniProt Q8N474).
T1 sequence (Q8N474 32-314): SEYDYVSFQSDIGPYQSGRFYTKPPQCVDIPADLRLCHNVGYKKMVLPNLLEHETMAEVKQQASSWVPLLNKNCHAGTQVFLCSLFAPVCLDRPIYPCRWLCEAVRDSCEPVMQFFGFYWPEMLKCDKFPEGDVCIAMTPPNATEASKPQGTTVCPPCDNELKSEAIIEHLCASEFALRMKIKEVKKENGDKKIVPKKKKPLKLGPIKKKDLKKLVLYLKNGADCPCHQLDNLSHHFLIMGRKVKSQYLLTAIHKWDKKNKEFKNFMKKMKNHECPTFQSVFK
Kind of test: Cell-based assay for in vitro measurement of SFRP-1/SARP2 antagonist activity (U2OS cells co-transfected with 16x TCF-tk-Luciferase reporter, Wnt and hSFRP-1).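 Also: U2OS cells co-transfected with a TCF-tk luciferase reporter, a Wnt vector, hSFRP-1 or empty vector and CMV-βgal, luciferase luminescence read in cell lysates alongside βgal activity.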 Background: A reporter such as luciferase makes a cellular process visible.

Test [2] deals with T1, SFRP-1. Put plainly: Fluorescence polarization binding assay (competitive displacement of a probe compound from SFRP-1).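 Also: test compound competes with a fluorescent probe held by SFRP-1, seen as a drop in probe anisotropy after incubation in darkness, with anisotropy as function of rising compound dose.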 To be noted: fluorescence anisotropy, 45 nM SFRP-1, 20 nM probe. Background: Fluorescence polarisation rises when a labelled molecule tumbles more slowly, as on binding a larger partner.

Turning to `COc1ccc(CNS(=O)(=O)c2cc(S(=O)(=O)c3ccccc3)ccc2C(F)(F)F)c(OC)c1` [Example 1021, N-(2,4-dimethoxybenzyl)-5-(phenylsulfonyl)-2-(trifluoromethyl)benzenesulfonamide], the EC50 – broadly, the concentration that produces a half-maximal response – in test [1] was greater than 10000 nM. Also, the IC50 (as a rule, the concentration that gives 50% inhibition) in test [2] is 200 nM.

In test [1], `CN(CCNS(=O)(=O)c1cc(S(=O)(=O)c2ccccc2)ccc1C(F)(F)F)C(=O)N[C@@H]1CCCNC1` [Example 1022, N-[2-(methyl{[(3R)-piperidin-3-ylamino]carbonyl}amino)ethyl]-5-(phenylsulfonyl)-2-(trifluoromethyl)benzenesulfonamide] showed an EC50 of 726 nM. In test [2], this compound came in with a 50% inhibitory concentration (IC50) of 170 nM.

Take `CN(CCNS(=O)(=O)c1cc(S(=O)(=O)c2ccccc2)ccc1C(F)(F)F)C(=O)N[C@H]1CCCNC1` [Example 1023, N-[2-(methyl{[(3S)-piperidin-3-ylamino]carbonyl}amino)ethyl]-5-(phenylsulfonyl)-2-(trifluoromethyl)benzenesulfonamide]: the EC50 in test [1] came out at 547 nM. The IC50 in test [2] is 210 nM.

In turn, `O=C(c1ccc(-c2ccccc2)nc1)N1CCC(NS(=O)(=O)c2cc(S(=O)(=O)c3ccccc3)ccc2C(F)(F)F)CC1` [Example 1024, N-{1-[(6-phenylpyridin-3-yl)carbonyl]piperidin-4-yl}-5-(phenylsulfonyl)-2-(trifluoromethyl)benzenesulfonamide] had an EC50 in test [1] of 236 nM. The compound also yielded an IC50 in test [2] of 200 nM.

With `COC(=O)COc1ccc2c(c1)CC(NS(=O)(=O)c1cc(S(=O)(=O)c3ccccc3)ccc1C(F)(F)F)C2` (centres unmarked) [Example 1028, methyl{[2-({[5-(phenylsulfonyl)-2-(trifluoromethyl)phenyl]sulfonyl}amino)-2,3-dihydro-1H-inden-5-yl]oxy}acetate], the response in test [1] was half-maximal at 87 nM (EC50). Also, the IC50 in test [2] worked out at 60 nM.

Take `O=C(c1ccnc(N2CCCC2)c1)N1CCC(NS(=O)(=O)c2cc(S(=O)(=O)c3ccccc3)ccc2C(F)(F)F)CC1` [Example 1029, 5-(phenylsulfonyl)-N-[1-(2-pyrrolidin-1-ylisonicotinoyl)piperidin-4-yl]-2-(trifluoromethyl)benzenesulfonamide]: a half-maximal response in test [1] (EC50) required 490 nM. This compound yielded an IC50 in test [2] of 140 nM.

Compound `O=S(=O)(NCc1ccc(Cl)nc1)c1cc(S(=O)(=O)c2ccccc2)ccc1C(F)(F)F` [Example 1030, N-[(6-chloropyridin-3-yl)methyl]-5-(phenylsulfonyl)-2-(trifluoromethyl)benzenesulfonamide] returned an EC50 in test [1] of 1110 nM. Further, the IC50 in test [2] was 500 nM.

In the case of `O=C(O)COc1ccc2c(c1)CC(NS(=O)(=O)c1cc(S(=O)(=O)c3ccccc3)ccc1C(F)(F)F)C2` (centres unmarked) [Example 1031, {[2-({[5-(phenylsulfonyl)-2-(trifluoromethyl)phenyl]sulfonyl}amino)-2,3-dihydro-1H-inden-5-yl]oxy}acetic acid], a half-maximal effect in test [1] (EC50) was put at 85 nM. For the same compound, the IC50 in test [2] stood at 20 nM.

Compound `O=S(=O)(NCc1ccc(N2CCCC2)nc1)c1cc(S(=O)(=O)c2ccccc2)ccc1C(F)(F)F` [Example 1032, 5-(phenylsulfonyl)-N-[(6-pyrrolidin-1-ylpyridin-3-yl)methyl]-2-(trifluoromethyl)benzenesulfonamide] displayed an EC50 in test [1] of 1440 nM. In addition, the IC50 in test [2] came to 500 nM.

Regarding `O=S(=O)(NCc1ccc(N2CCOCC2)nc1)c1cc(S(=O)(=O)c2ccccc2)ccc1C(F)(F)F` [Example 1033, N-[(6-morpholin-4-ylpyridin-3-yl)methyl]-5-(phenylsulfonyl)-2-(trifluoromethyl)benzenesulfonamide], in test [1], the midpoint of the response, the EC50, lay at 1520 nM. The same compound showed an IC50 in test [2] of 500 nM.

For the compound `O=S(=O)(NC1CCNCC1)c1cc(S(=O)(=O)c2cccc(Br)c2)ccc1C(F)(F)F` [Example 1034, 5-[(3-bromophenyl)sulfonyl]-N-piperidin-4-yl-2-(trifluoromethyl)benzenesulfonamide], the EC50 in test [1] is 1670 nM. This compound also yielded an IC50 in test [2] of 500 nM.

In the case of `CN(CCNS(=O)(=O)c1cc(S(=O)(=O)c2ccccc2)ccc1C(F)(F)F)C(=O)c1ccc(CP(=O)(O)O)cc1` [Example 1036, [4-({methyl[2-({[5-(phenylsulfonyl)-2-(trifluoromethyl)phenyl]sulfonyl}amino)ethyl]amino}carbonyl)benzyl]phosphonic acid], in test [1], the response was half-maximal at 7640 nM (EC50). The IC50 in test [2] turned out to be 800 nM.

With `COC(=O)c1ccc2c(c1)CC(NS(=O)(=O)c1cc(S(=O)(=O)c3ccccc3)ccc1C(F)(F)F)C2` (centres unmarked) [Example 1037, methyl 2-({[5-(phenylsulfonyl)-2-(trifluoromethyl)phenyl]sulfonyl}amino)indane-5-carboxylate], the EC50 in test [1] turned out to be 3810 nM. This compound yielded an IC50 in test [2] of 80 nM.

On to `C[C@H](C(N)=O)N1CCC(NS(=O)(=O)c2cc(S(=O)(=O)c3ccccc3)ccc2C(F)(F)F)CC1` [Example 1038, (2R)-2-[4-({[5-(phenylsulfonyl)-2-(trifluoromethyl)phenyl]sulfonyl}amino)piperidin-1-yl]propanamide], for which the EC50 in test [1] stood at 331 nM. In test [2], the IC50 was determined as 100 nM.

In turn, `C[C@@H](C(N)=O)N1CCC(NS(=O)(=O)c2cc(S(=O)(=O)c3ccccc3)ccc2C(F)(F)F)CC1` [Example 1039, (2S)-2-[4-({[5-(phenylsulfonyl)-2-(trifluoromethyl)phenyl]sulfonyl}amino)piperidin-1-yl]propanamide] yielded an EC50 in test [1] of 244 nM. In test [2], this compound yielded an IC50 of 400 nM.

In turn, `O=C(c1ccc(=O)[nH]c1)N1CCC(NS(=O)(=O)c2cc(S(=O)(=O)c3ccccc3)ccc2C(F)(F)F)CC1` [Example 1040, N-{1-[(6-oxo-1,6-dihydropyridin-3-yl)carbonyl]piperidin-4-yl}-5-(phenylsulfonyl)-2-(trifluoromethyl)benzenesulfonamide] had a concentration giving a half-maximal response (EC50) in test [1] of 217 nM. The IC50 in test [2] was determined as 140 nM.

For `COc1ccc2c(c1)C(O)C(NS(=O)(=O)c1cc(S(=O)(=O)c3ccccc3)ccc1C(F)(F)F)C2` (centres unmarked) [Example 1044, N-(1-hydroxy-6-methoxy-2,3-dihydro-1H-inden-2-yl)-5-(phenylsulfonyl)-2-(trifluoromethyl)benzenesulfonamide], in test [1], a half-maximal response (EC50) required 1340 nM. Moreover, the concentration for half-maximal inhibition (IC50) in test [2] came to 500 nM.

As to `CC(C)(C)OC(=O)N1CCC(NC(=O)NCCNS(=O)(=O)c2cc(S(=O)(=O)c3ccccc3)ccc2C(F)(F)F)CC1` [Example 1046, tert-butyl 4-[({[2-({[5-(phenylsulfonyl)-2-(trifluoromethyl)phenyl]sulfonyl}amino)ethyl]amino}carbonyl)amino]piperidine-1-carboxylate], the response in test [1] was half-maximal at 3440 nM (EC50). For the same compound, the half-maximal inhibitory concentration (IC50) in test [2] turned out to be 800 nM.

In turn, `CSc1ccc(C(=O)N2CCC(NS(=O)(=O)c3cc(S(=O)(=O)c4ccccc4)ccc3C(F)(F)F)CC2)cc1` [Example 1050, N-{1-[4-(methylthio)benzoyl]piperidin-4-yl}-5-(phenylsulfonyl)-2-(trifluoromethyl)benzenesulfonamide] came in with an EC50 in test [1] of 660 nM. In addition, the IC50 in test [2] was 170 nM.

As for `C[S+]([O-])c1ccc(C(=O)N2CCC(NS(=O)(=O)c3cc(S(=O)(=O)c4ccccc4)ccc3C(F)(F)F)CC2)cc1` (centres unmarked) [Example 1052, N-{1-[4-(Methylsulfinyl)benzoyl]piperidin-4-yl}-5-(phenylsulfonyl)-2-(trifluoromethyl)benzenesulfonamide], the EC50 in test [1] came out at 155 nM. The compound also showed an IC50 in test [2] of 90 nM.

With `CSCCC(=O)N1CCC(NS(=O)(=O)c2cc(S(=O)(=O)c3ccccc3)ccc2C(F)(F)F)CC1` [Example 1053, N-{1-[3-(methylthio)propanoyl]piperidin-4-yl}-5-(phenylsulfonyl)-2-(trifluoromethyl)benzenesulfonamide], it took 190 nM to reach a half-maximal effect in test [1] (EC50). The compound further registered an IC50 in test [2] of 40 nM.

In test [1], `C[S+]([O-])CCC(=O)N1CCC(NS(=O)(=O)c2cc(S(=O)(=O)c3ccccc3)ccc2C(F)(F)F)CC1` (centres unmarked) [Example 1054, N-{1-[3-(methylsulfinyl)propanoyl]piperidin-4-yl}-5-(phenylsulfonyl)-2-(trifluoromethyl)benzenesulfonamide] showed an EC50 of 717 nM. Further, in test [2], the IC50 is 40 nM.

In test [1], `CC(C)(C)OC(=O)N1CSC[C@H]1C(=O)N1CCC(NS(=O)(=O)c2cc(S(=O)(=O)c3ccccc3)ccc2C(F)(F)F)CC1` [Example 1055, tert-butyl (4R)-4-{[4-({[5-(phenylsulfonyl)-2-(trifluoromethyl)phenyl]sulfonyl}amino)piperidin-1-yl]carbonyl}-1,3-thiazolidine-3-carboxylate] returned an EC50 of 96 nM. In test [2], this compound showed an IC50 of 50 nM.

On to `O=C([C@@H]1CSCN1)N1CCC(NS(=O)(=O)c2cc(S(=O)(=O)c3ccccc3)ccc2C(F)(F)F)CC1` [Example 1056, 5-(phenylsulfonyl)-N-{1-[(4R)-1,3-thiazolidin-4-ylcarbonyl]piperidin-4-yl}-2-(trifluoromethyl)benzenesulfonamide], for which a half-maximal effect in test [1] (EC50) was put at 294 nM. In addition, the IC50 in test [2] amounted to 40 nM.

For `CC(C)(C)OC(=O)N1C[S+]([O-])C[C@H]1C(=O)N1CCC(NS(=O)(=O)c2cc(S(=O)(=O)c3ccccc3)ccc2C(F)(F)F)CC1` (stereo partly drawn) [Example 1061, tert-butyl (4R)-4-{[4-({[5-(phenylsulfonyl)-2-(trifluoromethyl)phenyl]sulfonyl}amino)piperidin-1-yl]carbonyl}-1,3-thiazolidine-3-carboxylate 1-oxide], in test [1], the EC50 stood at 78 nM. Besides, in test [2], the concentration for half-maximal inhibition (IC50) was found to be 20 nM.
